IC50 data for 19 molecules are collected here from ChEMBL document CHEMBL3864167, “Structure-Activity Relationship, Drug Metabolism and Pharmacokinetics Properties Optimization, and in Vivo Studies of New Brain Penetrant Triple T-Type Calcium Channel Blockers” (J Med Chem, 2016).

Holding throughout (assay type): cell-based
For test [1], the target named is Voltage-dependent T-type calcium channel subunit alpha-1G (Homo sapiens, UniProt O43497). Briefly: Channel blocking activity at recombinant human CaV 3.1 channel expressed in HEK293 cells assessed as inhibition of Ca2+ flux preincubated for 3 mins followed by CaCl2 addition by fluo-4 dye-based FLIPR assay. Background: A change in cytosolic calcium serves as a functional read-out for many receptors and channels.

Test [2] has as its target Voltage-dependent T-type calcium channel subunit alpha-1H (Homo sapiens, UniProt O95180). Briefly: Channel blocking activity at recombinant human CaV 3.2 channel expressed in HEK293 cells assessed as inhibition of Ca2+ flux preincubated for 3 mins followed by CaCl2 addition by fluo-4 dye-based FLIPR assay.
Test [3] deals with Voltage-dependent T-type calcium channel subunit alpha-1I (Homo sapiens, UniProt Q9P0X4). The test can be described thus: Channel blocking activity at recombinant human CaV 3.3 channel expressed in HEK293 cells assessed as inhibition of Ca2+ flux preincubated for 3 mins followed by CaCl2 addition by fluo-4 dye-based FLIPR assay.
Voltage-dependent T-type calcium channel subunit alpha-1I, sequence (Q9P0X4 whole entry): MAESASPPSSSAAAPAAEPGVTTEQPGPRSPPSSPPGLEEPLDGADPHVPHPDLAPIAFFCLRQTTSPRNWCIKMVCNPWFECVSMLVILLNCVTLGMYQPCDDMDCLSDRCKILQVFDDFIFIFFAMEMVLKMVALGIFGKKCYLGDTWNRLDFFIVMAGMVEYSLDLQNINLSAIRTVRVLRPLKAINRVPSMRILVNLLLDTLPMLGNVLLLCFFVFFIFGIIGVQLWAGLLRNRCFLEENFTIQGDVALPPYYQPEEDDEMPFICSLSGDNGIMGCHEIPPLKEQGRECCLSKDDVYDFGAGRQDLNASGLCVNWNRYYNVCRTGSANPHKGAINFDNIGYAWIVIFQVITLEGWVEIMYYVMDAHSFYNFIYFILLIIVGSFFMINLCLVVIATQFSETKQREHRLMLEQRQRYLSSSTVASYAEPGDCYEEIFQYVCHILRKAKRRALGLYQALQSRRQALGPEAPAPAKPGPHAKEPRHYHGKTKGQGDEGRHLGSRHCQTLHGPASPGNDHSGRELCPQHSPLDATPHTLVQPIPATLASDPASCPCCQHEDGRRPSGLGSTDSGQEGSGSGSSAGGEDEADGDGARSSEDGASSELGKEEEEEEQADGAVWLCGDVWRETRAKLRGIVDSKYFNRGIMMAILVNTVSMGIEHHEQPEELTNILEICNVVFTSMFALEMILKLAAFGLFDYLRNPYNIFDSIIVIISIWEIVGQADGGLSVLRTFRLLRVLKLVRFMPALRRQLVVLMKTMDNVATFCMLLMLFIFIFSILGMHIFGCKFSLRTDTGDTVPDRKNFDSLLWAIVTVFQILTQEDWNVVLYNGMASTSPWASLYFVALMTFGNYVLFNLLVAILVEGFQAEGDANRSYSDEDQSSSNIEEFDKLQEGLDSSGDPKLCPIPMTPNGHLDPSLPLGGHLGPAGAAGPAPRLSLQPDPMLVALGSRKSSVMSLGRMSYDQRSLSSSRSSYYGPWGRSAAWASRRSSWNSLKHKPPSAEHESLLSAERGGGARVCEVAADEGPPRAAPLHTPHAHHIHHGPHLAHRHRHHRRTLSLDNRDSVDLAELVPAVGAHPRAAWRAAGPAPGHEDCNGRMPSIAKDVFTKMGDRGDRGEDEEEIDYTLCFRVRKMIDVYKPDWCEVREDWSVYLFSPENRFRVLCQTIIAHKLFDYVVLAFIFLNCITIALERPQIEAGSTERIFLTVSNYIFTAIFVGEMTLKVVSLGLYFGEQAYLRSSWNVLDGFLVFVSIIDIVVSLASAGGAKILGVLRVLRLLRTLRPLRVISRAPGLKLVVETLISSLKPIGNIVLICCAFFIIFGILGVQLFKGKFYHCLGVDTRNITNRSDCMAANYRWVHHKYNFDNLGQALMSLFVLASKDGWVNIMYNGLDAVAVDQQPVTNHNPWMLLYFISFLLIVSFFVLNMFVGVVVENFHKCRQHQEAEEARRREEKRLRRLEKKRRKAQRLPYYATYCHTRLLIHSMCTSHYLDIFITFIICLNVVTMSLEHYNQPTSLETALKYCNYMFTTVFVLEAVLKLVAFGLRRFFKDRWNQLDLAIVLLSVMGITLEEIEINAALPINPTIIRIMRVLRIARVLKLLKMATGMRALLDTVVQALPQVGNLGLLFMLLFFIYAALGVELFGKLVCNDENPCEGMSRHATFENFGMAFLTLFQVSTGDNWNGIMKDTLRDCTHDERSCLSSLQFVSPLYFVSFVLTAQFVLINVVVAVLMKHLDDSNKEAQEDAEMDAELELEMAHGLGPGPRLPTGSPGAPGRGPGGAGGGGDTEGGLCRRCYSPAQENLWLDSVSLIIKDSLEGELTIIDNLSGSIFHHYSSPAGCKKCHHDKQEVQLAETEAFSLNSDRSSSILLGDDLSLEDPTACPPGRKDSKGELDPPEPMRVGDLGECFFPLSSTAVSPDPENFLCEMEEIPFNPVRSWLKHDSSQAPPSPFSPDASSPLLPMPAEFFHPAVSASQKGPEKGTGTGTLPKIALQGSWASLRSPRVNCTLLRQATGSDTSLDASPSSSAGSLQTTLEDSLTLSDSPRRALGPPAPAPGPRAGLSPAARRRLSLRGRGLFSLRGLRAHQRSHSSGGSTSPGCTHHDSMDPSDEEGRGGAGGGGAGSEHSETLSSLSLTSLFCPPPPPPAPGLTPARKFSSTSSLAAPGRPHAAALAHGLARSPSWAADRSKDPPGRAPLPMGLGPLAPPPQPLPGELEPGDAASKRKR

A value given as a limit tells only on which side of the number the result lay.

Voltage-dependent T-type calcium channel subunit alpha-1H, sequence (O95180 whole entry): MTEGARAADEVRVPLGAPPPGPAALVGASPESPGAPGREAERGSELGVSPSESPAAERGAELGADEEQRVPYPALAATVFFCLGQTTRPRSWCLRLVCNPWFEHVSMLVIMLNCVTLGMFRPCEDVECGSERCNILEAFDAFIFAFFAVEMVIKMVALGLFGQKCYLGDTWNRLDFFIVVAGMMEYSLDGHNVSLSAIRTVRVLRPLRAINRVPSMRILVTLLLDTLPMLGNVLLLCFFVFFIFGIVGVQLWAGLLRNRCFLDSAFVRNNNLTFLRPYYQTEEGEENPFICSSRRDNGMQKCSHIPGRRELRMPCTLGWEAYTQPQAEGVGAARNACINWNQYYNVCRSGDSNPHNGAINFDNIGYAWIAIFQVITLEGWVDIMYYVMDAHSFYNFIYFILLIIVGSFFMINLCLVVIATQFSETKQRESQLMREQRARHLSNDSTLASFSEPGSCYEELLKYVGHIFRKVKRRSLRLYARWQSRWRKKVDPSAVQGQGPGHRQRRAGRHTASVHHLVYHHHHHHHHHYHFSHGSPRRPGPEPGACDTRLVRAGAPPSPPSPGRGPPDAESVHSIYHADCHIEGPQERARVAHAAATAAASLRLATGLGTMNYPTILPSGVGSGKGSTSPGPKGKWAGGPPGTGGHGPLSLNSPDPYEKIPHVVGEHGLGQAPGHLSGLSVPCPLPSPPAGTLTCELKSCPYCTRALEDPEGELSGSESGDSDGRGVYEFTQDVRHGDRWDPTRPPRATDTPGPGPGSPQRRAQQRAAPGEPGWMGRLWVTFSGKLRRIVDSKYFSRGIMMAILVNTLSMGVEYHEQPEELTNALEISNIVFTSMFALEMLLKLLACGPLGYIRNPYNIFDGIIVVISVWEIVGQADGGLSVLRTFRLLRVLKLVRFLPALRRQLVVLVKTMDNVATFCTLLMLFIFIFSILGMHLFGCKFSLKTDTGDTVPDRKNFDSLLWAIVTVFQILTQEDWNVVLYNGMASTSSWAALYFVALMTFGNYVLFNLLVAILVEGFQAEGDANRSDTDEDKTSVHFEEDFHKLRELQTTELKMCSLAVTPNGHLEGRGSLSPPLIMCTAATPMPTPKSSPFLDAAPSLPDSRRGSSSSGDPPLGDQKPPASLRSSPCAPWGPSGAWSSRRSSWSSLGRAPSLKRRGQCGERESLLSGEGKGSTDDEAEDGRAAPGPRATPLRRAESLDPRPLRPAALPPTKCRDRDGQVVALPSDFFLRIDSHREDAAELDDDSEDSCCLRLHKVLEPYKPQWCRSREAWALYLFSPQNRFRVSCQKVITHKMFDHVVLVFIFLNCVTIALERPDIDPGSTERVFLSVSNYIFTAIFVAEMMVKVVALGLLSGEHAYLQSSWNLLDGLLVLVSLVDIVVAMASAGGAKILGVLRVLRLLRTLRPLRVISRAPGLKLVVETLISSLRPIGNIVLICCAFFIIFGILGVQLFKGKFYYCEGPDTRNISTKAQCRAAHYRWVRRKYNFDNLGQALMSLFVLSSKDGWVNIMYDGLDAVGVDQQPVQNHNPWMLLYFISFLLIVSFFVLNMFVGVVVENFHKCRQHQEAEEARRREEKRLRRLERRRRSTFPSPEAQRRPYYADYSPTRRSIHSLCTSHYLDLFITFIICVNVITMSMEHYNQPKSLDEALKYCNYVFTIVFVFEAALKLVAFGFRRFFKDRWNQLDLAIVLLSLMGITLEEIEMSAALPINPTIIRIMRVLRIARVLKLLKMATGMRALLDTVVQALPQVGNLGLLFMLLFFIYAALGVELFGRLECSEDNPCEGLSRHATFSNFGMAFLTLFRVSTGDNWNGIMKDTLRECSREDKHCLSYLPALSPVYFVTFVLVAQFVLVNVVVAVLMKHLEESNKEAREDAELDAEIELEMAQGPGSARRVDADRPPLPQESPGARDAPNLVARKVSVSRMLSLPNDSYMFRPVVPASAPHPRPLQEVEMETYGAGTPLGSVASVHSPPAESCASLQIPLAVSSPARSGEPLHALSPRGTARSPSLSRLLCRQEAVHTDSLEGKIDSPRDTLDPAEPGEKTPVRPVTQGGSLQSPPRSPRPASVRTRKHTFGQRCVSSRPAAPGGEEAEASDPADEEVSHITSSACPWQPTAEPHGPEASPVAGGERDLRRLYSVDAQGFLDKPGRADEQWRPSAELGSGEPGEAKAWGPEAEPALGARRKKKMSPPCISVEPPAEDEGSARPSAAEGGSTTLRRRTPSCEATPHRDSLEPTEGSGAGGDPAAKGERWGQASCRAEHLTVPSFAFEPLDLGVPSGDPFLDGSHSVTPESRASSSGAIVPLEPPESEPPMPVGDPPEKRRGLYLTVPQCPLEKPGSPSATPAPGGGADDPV

Turning to `C[C@@H]1CN(Cc2ccccc2)c2ccccc2[C@H](C)N1C(=O)N(C)Cc1ccccc1` (racemic), the figures for the IC50 in test [1], in test [2] and in test [3] were 0.457 µM, 0.835 µM and 0.892 µM, respectively.

Turning to `C[C@@H]1CN(C(=O)NCc2ccccc2)[C@@H](C)c2ccccc2N1Cc1ccccc1` (racemic), the IC50 (as a rule, the point on the concentration scale where inhibition reaches its midpoint) in test [1] stood at 0.211 µM; in test [2] it was 0.198 µM; in test [3] it was 0.326 µM.

Turning to `C[C@@H]1CN(Cc2ccccn2)c2ccccc2[C@H](C)N1C(=O)NCc1ccccc1` (racemic), the IC50 came out at 0.605 µM in test [1], 0.479 µM in test [2] and 0.097 µM in test [3].

Consider `Cc1ccc2c(c1)N(Cc1ccccc1)C[C@@H](C)N(C(=O)Nc1cccnc1)[C@H]2C` (racemic), for which the figures for the IC50 in test [1], in test [2] and in test [3] were 0.227 µM, 0.231 µM and 0.074 µM, respectively.

As to `C[C@@H]1CN(Cc2cccc(F)c2F)c2ccccc2[C@H](C)N1C(=O)NCc1ccccc1` (racemic), the IC50 in test [1] worked out at 0.005 µM; in test [2] it was 0.009 µM; in test [3], 0.004 µM.

With `C[C@@H]1CN(C(=O)c2ccccc2)c2ccccc2[C@H](C)N1C(=O)NCc1ccccc1` (racemic), the IC50 was 6.07 µM in test [1], > 11.5 µM in test [2] and > 10 µM in test [3].

In the case of `COc1cccc2c1[C@H](C)N(C(=O)Nc1cccnc1)[C@H](C)CN2Cc1ccccc1` (racemic), the IC50 turned out to be 0.188 µM in test [1], 0.305 µM in test [2] and 0.13 µM in test [3].

As for `COc1cccc2c1N(Cc1ccccc1)C[C@@H](C)N(C(=O)Nc1cccnc1)[C@H]2C` (racemic), the IC50 in test [1] is > 5.3 µM; in test [2], > 6.5 µM; in test [3] it was > 9 µM.

For the molecule `C[C@@H]1CN(Cc2cccnc2)c2ccccc2[C@H](C)N1C(=O)NCc1ccccc1` (racemic), the values for the IC50 in test [1], in test [2] and in test [3] were 0.476 µM, 0.5 µM and 0.095 µM, respectively.

As for `C[C@@H]1c2ccccc2N(Cc2ccccc2)C[C@H](C)N1C(=O)NCc1ccccc1`, the results for the IC50 in test [1], in test [2] and in test [3] were 0.262 µM, 0.358 µM and 0.641 µM, respectively.

For `C[C@@H]1c2ccncc2N(Cc2ccccc2)C[C@H](C)N1C(=O)NCc1ccccc1`, the IC50 is > 10 µM in test [1], > 11 µM in test [2] and > 10 µM in test [3].

`C[C@H]1c2ccccc2N(Cc2ccccc2)[C@@H](C)CN1C(=O)NCc1ccccc1` (racemic): the figures for the concentration for half-maximal inhibition (IC50) in test [1], in test [2] and in test [3] were 0.293 µM, 0.464 µM and 1 µM, respectively.

As to `C[C@@H]1CN(Cc2ccccc2)c2cc(Br)ccc2[C@H](C)N1C(=O)Nc1cccnc1` (racemic), the IC50 was found to be 0.286 µM in test [1], 0.428 µM in test [2] and 0.137 µM in test [3].

As for `C[C@@H]1CN(Cc2ccccc2)c2cc(S(C)(=O)=O)ccc2[C@H](C)N1C(=O)Nc1cccnc1` (racemic), the concentration for half-maximal inhibition (IC50) is > 10 µM in test [1], > 8 µM in test [2] and > 10 µM in test [3].

In the case of `C[C@@H]1CN(S(=O)(=O)c2ccccc2)c2ccccc2[C@H](C)N1C(=O)Nc1cccnc1` (racemic), the IC50 in test [1] was > 10 µM; in test [2] it was 4.69 µM; in test [3], 1.81 µM.

For the molecule `C[C@@H]1CN(Cc2ccccc2)c2nnccc2[C@H](C)N1C(=O)NCc1ccccc1` (racemic), the results for the IC50 in test [1], in test [2] and in test [3] were 1.14 µM, 0.695 µM and 0.206 µM, respectively.

With `C[C@@H]1CN(Cc2ccccc2)c2ccccc2[C@H](C)N1C(=O)OCc1ccccc1` (racemic), the IC50 stood at 0.42 µM in test [1], 0.841 µM in test [2] and 0.473 µM in test [3].

For the molecule `C[C@@H]1CN(Cc2ccccc2)c2ccncc2[C@H](C)N1C(=O)NCc1ccccc1` (racemic), the IC50 is 6.28 µM in test [1], > 11 µM in test [2] and > 8.74 µM in test [3].

As to `COc1cc2c(cc1F)N(Cc1ccccc1)C[C@@H](C)N(C(=O)Nc1cccnc1)[C@H]2C` (racemic), the concentration for half-maximal inhibition (IC50) in test [1] was determined as 0.37 µM; in test [2] it was 0.414 µM; in test [3] it was 0.073 µM.
